Consider one compound from US20040091460A1, “Preparation of spheroids” (priority 2000, published 2004).

Entries after “also recorded” stand apart in the source; their conditions may differ.

Common to all, as to type: cell-based
The subject of data set [1] is rat liver spheroids. Description: Glutathione content of liver spheroids after GalN exposure (fluorimetric OPT method). Particulars: 24 hr exposure. The procedure: (§1) Liver spheroids were prepared from the liver of male Wistar rats by a two-step collagenase perfusion method described by Seglen P. O. ((1976). Preparation of isolated rat liver cells. Methods Cell. Biol. 13, 29-38) and modified by Lazar, A.; Peshwa, M. V., Wu, F. J., Chi, C. M., Cerra, F. B., and Hu, W. S. (1995). Extended liver-specific functions of procirne hepatocyte spheroids entrapped in collagen gel. In Vitro Cell Biol Anim. 31, 340-346). Viability of the isolated liver cells was determined by tyrpan blue dye exclusion i.e. an aliquot of isolated liver cells was mixed with an equal volume of trypan blue dye (1.0% w/v in isotonic saline) and incubated at room temperature for a minimum period of 5 minutes. Only isolated liver cell preparations with viability above 80% were used to prepare liver spheroids. The cell suspension was diluted with culture medium (hepatocyte medium supplemented with 10% FCS, 200 mM L-glutamine, 2 ng/ml insulin, 100 U/ml penicillin and 100 μg/ml streptomycin sulfate) to give a cell density of 5×10^5 cells/ml. […]
Glutathione levels in spheroids were determined by the fluorimetric method (Hissin P. J., and Hilf (1976). A fluorimetric method for the determination of oxidised and reduced glutathione in tissues. Anal. Biochem. 74, 214-226). […] Absorbance was read on a fluorimeter at excitation wavelength 350 nm and emission wavelength 420 nm.

Data set [2] deals with rat liver spheroids. Nature of the data set: Intoxification of liver spheroids: spheroid damage / functional change observed. The procedure: as §1, with “cells/ml. The diluted cell suspension was dispersed into 6-well plates, 3 ml/well. The plates were incubated at 37° C., in a 5% CO2 incubator on a gyrotatory shaker (New Brunswick) at an initial rotation speed of 85 rpm for the first 24 hr and 77 rpm thereafter.” for “cells/ml.”

Data set [3] concerns rat liver spheroids. Description: Albumin synthesis of liver spheroids after GalN exposure (BCG albumin kit, medium). As to conditions: 24 hr exposure. On the procedure: as §1, with “cells/ml. The diluted cell suspension was dispersed into 6-well plates, 3 ml/well.” for “cells/ml.”
Albumin concentration in the medium was determined by Albumin Reagent Kit (BCG, Sigma). […] Absorbance was read on a microplate reader (Multiscan RC, Labsystems) at 630 nm.

For data set [4], the system named is rat liver spheroids. Nature of the data set: Urea synthesis of liver spheroids after GalN exposure (Urea Nitrogen Kit, medium). The procedure:
as §1, with “spheroids.” for “spheroids. The cell suspension was diluted with culture medium (hepatocyte medium supplemented with 10% FCS, 200 mM L-glutamine, 2 ng/ml insulin, 100 U/ml penicillin and 100 μg/ml streptomycin sulfate) to give a cell density of 5×10^5 cells/ml.”
Urea concentration in the media was determined using a Urea Nitrogen Kit (Cat. 640-A, Sigma). The method was modified in order to be suitable for a 96-well plate format and assays using a microplate reader. […] Total ammonium nitrogen of each sample was determined by adding 25 μl urease solution to each well followed by 10 μl of diluted medium. […] A blue colour developed and the absorbance was read on a microplate reader (Multiscan RC, Labsystems) at 590 nm. Free non-urea nitrogen was determined by adding 25 μl PBS without urease followed by 10 μl medium. […]

The test system of data set [5] is rat liver spheroids. Nature of the data set: Lactate dehydrogenase (LDH) leakage of liver spheroids after GalN exposure. The procedure: as §1, with “cells/ml. The diluted cell suspension was dispersed into 6-well plates, 3 ml/well. The plates were incubated at 37° C., in a 5% CO2 incubator on a gyrotatory shaker (New Brunswick) at an initial rotation speed of 85 rpm for the first 24 hr and 77 rpm thereafter. The plates were rotated at this speed for the duration of the study (up to 45 days, but typically 2-10 days). 1.5 ml of old medium was replaced with 2.0 ml fresh medium for each well every other day. Media exchange was carried out over the duration of the study (up to 45 days, but typically 2-10 days).” for “cells/ml.”
LDH in the media was assayed using the method developed by Korzeniewski and Callewaert (Korzeniwski, C., and Callewaert, D. M. (1983). An enzyme-release assay for natural cytotoxicity. J Immun. Meth. 64, 313-320). […] The resultant absorbance at 490 mn was monitored for 15 min, at 10 sec intervals on a microplate reader (Multiscan RC, Labsystem).

For data set [6], the system named is rat liver spheroids. Description: Total protein content of rat liver spheroids after GalN exposure (Bradford). Particulars: 24 hr exposure, vs control. On the procedure: as §1, with “spheroids.” for “spheroids. The cell suspension was diluted with culture medium (hepatocyte medium supplemented with 10% FCS, 200 mM L-glutamine, 2 ng/ml insulin, 100 U/ml penicillin and 100 μg/ml streptomycin sulfate) to give a cell density of 5×10^5 cells/ml.”
Spheroids were homogenized in homogenisation buffer containing NaH2PO42H2O, 2 mM; Na2HPO4, 2 mM; EDTA, 0.5 mM; and NaCl, 145 mM. Total protein was assessed according to the method developed by Bradford (1976). […] The protein content was determined by Micro Protein Kit (Sigma, Cat. No. 610-A). […] Absorbance was read on a microplate reader (Multiscan RC, Labsystem) at 595 nm.

[7] abbreviates: 0-40 mM GalN, trend over concentration.

On to `N[C@H]1C(O)O[C@H](CO)[C@H](O)[C@@H]1O` (stereo partly drawn) [GalN, D-Galactosamine], for which the glutathione content result in the data set on rat liver spheroids [1] (20 mM and lower GalN) is “did not decrease”; with rat liver spheroids [1] (40 mM GalN, p<0.05), “significantly decreased”. Further, the “functional change of liver spheroids” value in the data set on rat liver spheroids [2] (20 mM GalN) is “caused a functional change”. Further, the “spheroid damage / cell death” value in the data set with rat liver spheroids [2] (40 mM GalN (highest concentration), 24 hr exposure) is reported as “caused acute cell death”. The albumin synthesis result in the data set on rat liver spheroids [3] (setting [7]) is given as “concentration-dependent decrease”; in the data set with rat liver spheroids [3] (40 mM GalN, vs control, p<0.05), “decrease was significant”. In addition, in the data set on rat liver spheroids [4] (0-40 mM GalN, 24 hr after exposure, trend over concentration), the urea synthesis result is “concentration-dependent increase”. Also, the “synthetic rates of urea” value in the data set on rat liver spheroids [4] (10 mM or higher GalN, 24 hr, vs control, p<0.05) is given as “significantly higher”. Further, the LDH leakage entry with rat liver spheroids [5] (setting [7]) is reported as “concentration-dependent increase”; with rat liver spheroids [5] (10 mM GalN, 24 hr, p<0.05), “significantly increased”; with rat liver spheroids [5] (20 and 40 mM GalN, 4 hours after exposure, vs control, p<0.05), “significant increase”. The “total protein content of spheroids” value is recorded as “not affected; also recorded: did not decrease” with rat liver spheroids [6] (20 mM or lower GalN) and “significantly decreased” in the data set on rat liver spheroids [6] (40 mM GalN, p<0.05).
